In US20090081758A1, “Chimeric Cytochrome P450 Proteins and Methods of Use” (THE REGENTS OF THE UNIVERSITY OF MICHIGAN, priority 2007, published 2009):

Legend:
[1] = test system: PikC-RhFRED; assay: Steady-state kinetics, substrate consumption by HPLC, PikC-RhFRED; assay type: biochemical, Streptomyces venezuelae; conditions: kcat/Km of PikC-RhFRED relative to wt-PikC with Fdr and Fdx
Description: Subsequently, the kinetic parameters of PikC-RhFRED were compared with those of the PikC-Fdr-Fdx three component system. […] Moreover, the solubility limitation (less than 500 μM) of macrolides in aqueous solution prevented us from deducing the K, value. Therefore, the apparent specificity constants (kcat/Km) were determined by fitting the low-concentration data to the linear region of a Michaelis-Menten curve. […] In contrast, the specificity constants of wt-PikC partnered by Fdr and Fdx were 0.24 μM^−1·min^−1 for YC-17 and 0.31 μM^−1·min^−1 for narbomycin. It is evident that the fusion enhanced the catalytic activity approximately 4 fold for both YC-17 and narbomycin. […] The presumed de-coupling between electron transfer and hydroxylation may account for this difference.
The standard reaction contains 100 nM of PikC-RhFRED (or 150 nM of wt-PikC with 3.5 μM spinach ferredoxin and 0.1 U/ml spinach ferredoxin-NADP^+ reductase), 20˜250 μM substrate in 200 μl of desalting buffer (50 mM NaH2PO4, pH 7.3, 1 mM EDTA, 0.2 mM DTE, 10% glycerol). After pre-incubation at 30° C. for 5 min, the reaction was initiated by adding 1 μl of 50 mM NADPH and 50 μl aliquots were taken at 0 s, 20 s, and 40 s (or Os, 30 s, and 60 s when substrate concentration greater than 100 μM) to thoroughly mix with 2×100 μl of chloroform. […]

[2] = target: wt-PikC (Streptomyces venezuelae, UniProt O87605); assay: Spectral substrate binding assay, wt-PikC; conditions: Type I difference spectra, 1 μM P450, room temperature; read-out: Kd (dissociation constant)
Sequence of wt-PikC (O87605 whole entry, the tested form may be a part): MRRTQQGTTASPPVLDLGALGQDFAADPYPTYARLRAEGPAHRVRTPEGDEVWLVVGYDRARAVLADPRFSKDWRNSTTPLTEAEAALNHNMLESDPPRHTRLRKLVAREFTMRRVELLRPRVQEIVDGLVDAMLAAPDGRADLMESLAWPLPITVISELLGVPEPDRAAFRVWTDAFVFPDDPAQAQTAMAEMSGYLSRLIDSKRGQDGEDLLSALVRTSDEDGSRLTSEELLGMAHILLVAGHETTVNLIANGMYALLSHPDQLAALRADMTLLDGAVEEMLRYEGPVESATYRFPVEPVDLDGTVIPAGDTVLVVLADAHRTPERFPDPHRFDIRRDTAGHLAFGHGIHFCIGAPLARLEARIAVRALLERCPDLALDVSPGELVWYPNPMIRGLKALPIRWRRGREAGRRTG
Description: (§1) Spectral substrate binding assays were performed using a UV-visible spectrophotometer 300 Bio (Cary) at room temperature by titrating 30 mM substrate DMSO solution (blank DMSO for reference group) into 1 ml of 1 μM P450 sample in 1 μl aliquots, leading to substrate concentration ranging from 30 to 360 μM. The series of Type I difference spectra were used to deduce ΔA (Apeak(389)−Atrough(424)). Then, the data were fit to Michaelis-Menten equation to obtain the dissociation constant Kd. As mentioned above, one benefit of the fusion protein arrangement is the facility of the covalent linkage to stabilize productive interactions between the P450 and redox partner, thus enhancing electron transfer efficiency. […] To test whether this also applies to PikC-RhFRED, we first determined the substrate binding affinity of YC-17 and narbomycin toward both PikC and PikC-RhFRED.

[3] = target: PikC-RhFRED; assay: Spectral substrate binding assay, PikC-RhFRED; set-up: species or system Streptomyces venezuelae; conditions: Type I difference spectra, 1 μM P450, room temperature; read-out: Kd (dissociation constant)
Description: as §1

| Compound | enhancement of catalytic activity by fusion (PikC-RhFRED vs wt-PikC) [1] | Kd [2] | Kd [3] |
| --- | --- | --- | --- |
| CC[C@H]1OC(=O)[C@H](C)[C@@H](O[C@@H]2O[C@H](C)C[C@H](N(C)C)[C@H]2O)[C@@H](C)C[C@@H](C)C(=O)/C=C/[C@H]1C [YC-17] | approximately 4 fold | 113 ± 1.9 µM | 92.6 ± 0.5 µM |
| CC[C@H]1OC(=O)[C@H](C)C(=O)[C@H](C)[C@@H](O[C@@H]2O[C@H](C)C[C@H](N(C)C)[C@H]2O)[C@@H](C)C[C@@H](C)C(=O)/C=C/[C@H]1C [narbomycin] | approximately 4 fold | 288 ± 7.1 µM | 215 ± 4.2 µM |
